Like-named read-outs stand apart in the source and are kept apart here. One block for each molecule: values may come before it.
How the values were obtained:
[1] = Phase 1 study, interim cohort pharmacokinetics; type: in vivo, human; details: for dose proportionality of PK: Cycle 2 Day 1 (C2D1); for exposure with increase in dose: interim cohort PK
Protocol: Serial blood samples are obtained to characterize the plasma PK of Compound A and its major active metabolites. The initial sampling strategy is based on the predicted human PK of this compound. If in the course of evaluating the PK, it is determined that an alternative sampling scheme would be more informative, then that alternative sampling scheme can be implemented if the total amount of blood and blood draws obtained for PK is not increased. Moreover, the total number of samples can be decreased at any time if the initial sampling scheme is considered unnecessarily intensive.

[2] = cited from earlier work
PD-1 pathway = details: cited from earlier work
[3] = tested on: CMV specific memory T cells; details: versus isotype-matched control, dose-dependent; cited from earlier work
NSCLC [4] = details: cited from earlier work
NSCLC [5] = details: cited from earlier work; remark: listed apart in the source
advanced NSCLC = details: cited from earlier work
[6] = tested on: PD-L1-positive, advanced NSCLC; details: cited from earlier work
advanced melanoma = details: median follow-up 9 months after completion of 2 years of pembrolizumab; cited from earlier work

- ratio of Compound B to Compound A ([1]; C2D1, 400 mg and 800 mg dose): 1.3-1.4 x parent
- Compound B metabolite ratio ([1]; C2D1, cohorts above 200 mg): increased
- dose proportionality of PK [1]: greater than dose proportional
- accumulation with repeat dosing ([1]; above 200 mg): Accumulation
- exposure with increase in dose [1]: Increased exposure with increase in dose
- AUC relative to Compound A ([1]; repeated dosing, 2/3 subjects at 400 and 800 mg): greater than Compound A
Molecule: CC(C)(O)c1cnn2c(N[C@@H]3CCc4[nH]c5ccccc5c4C3)nc(-c3cncc(F)c3)nc12 [Compound B]

- ratio of Compound C to Compound A (AUC) ([1]; 400 mg and 800 mg dose): 15-20 % of parent
- dose proportionality of PK [1]: greater than dose proportional
- exposure with increase in dose [1]: Increased exposure with increase in dose
Molecule: C=C(C)c1cnn2c(N[C@@H]3CCc4[nH]c5ccccc5c4C3)nc(-c3cncc(F)c3)nc12 [Compound C]

Molecule: ipilimumab: drug combined with nivolumab; comparator in Keynote-006
- effect on the clearance of ipilimumab ([2]; nivolumab in combination with ipilimumab): no effect

Molecule: nivolumab: human monoclonal antibody (IgG4 kappa immunoglobulin) that blocks the interaction between PD-1 and its ligands
- proliferation and IFN-γ release in the MLR (PD-1 pathway): reproducible enhancement
- IFN-γ secretion from CMV specific memory T cells [3]: augmented IFN-γ secretion
- systemic accumulation ([2]; 3 mg/kg Q2W): approximately 3 fold
- time to steady-state concentrations ([2]; 3 mg/kg Q2W): ≤ 12 weeks
- exposure versus dose ([2]; 0.1 to 10 mg/kg every 2 weeks): increased dose proportionally
- geometric mean clearance (CL) ([2]; 0.1 to 10 mg/kg, single or multiple doses): 9.5 mL/h
- geometric mean elimination half-life (t½) ([2]; 0.1 to 10 mg/kg): 26.7 days
- geometric mean volume of distribution at steady state (Vss) ([2]; 0.1 to 10 mg/kg): 8.0 L
- increase of CL of nivolumab ([2]; in combination with ipilimumab): 24%
- subjects alive >5 years and progression-free without subsequent therapy (NSCLC [4]; among 16 NSCLC subjects who discontinued after 2 years of treatment): 12 subjects
- OS rate (NSCLC [4]; at 2 years): 25%
- OS rate (NSCLC [4]; at 3 years): 18%
- 2 year OS rate (NSCLC [5]; non-squamous NSCLC): 29%
- 2 year OS rate (NSCLC [5]; squamous NSCLC): 23%
- 3 year OS rates (NSCLC [5]; squamous and non-squamous NSCLC): 16%-18%
- OS HR, continued treatment (advanced NSCLC; median follow-up 14.9 months post-randomization): 0.63
- PFS HR, continue versus stop treatment (advanced NSCLC; post-randomization after 1 year of nivolumab): 0.42
- median PFS (post-randomization) (advanced NSCLC; randomized to continue nivolumab): not reached
- median PFS (post-randomization) (advanced NSCLC; randomized to stop treatment): 10.3 months

Molecule: pembrolizumab
- patients with confirmed progression after stopping at 2 years ([6]; 47 patients who completed 2 years): 4%
- OS hazard ratio (HR) compared to docetaxel ([6]; pembrolizumab 2 mg/kg every 3 weeks): 0.72
- OS hazard ratio (HR) compared to docetaxel ([6]; pembrolizumab 10 mg/kg every 3 weeks): 0.60
- estimated risk of progression or death (advanced melanoma): 9%

Source: patent US20240148740A1, “COMBINATION OF AN AHR INHIBITOR WITH A PDX INHIBITOR OR DOXORUBICINE” (Ikena Oncology, Inc., priority 2020, published 2024)
